Data reported in patent publication US20050182128A1, “Use of anethole dithiolethione in lung cancer chemoprevention” (priority 2002, published 2005).

Assays:
human Jurkat cells = conditions: pretreatment of human Jurkat cells; cited from earlier work
bronchial dysplasia = assay: Phase IIb trial: nuclear morphometry index (MI) of bronchial biopsies; assay type: in vivo, human
Excerpt: The primary outcome of the study was changes in the histopathology grade of the bronchial biopsies before and after six months of intervention. The secondary endpoint was changes in the nuclear morphometry index of the bronchial biopsies.
The method of quantitative nuclear morphometry had been described in detail previously (Lam et al., 1998; Doudkine et al., 1995; Garner et al., 1994). […] Morphometric measurements provide a more objective and reproducible means for the grading of bronchial biopsies than subjective assessment does. The device used to make these high-resolution quantitative morphometric measurements was a Cyto-Savant™ system (Lam et al., 1998; Doudkine et al., 1995; Garner et al., 1994). The images were interactively collected by an experienced cytotechnologist under the direction of a pathologist (JCL). The images were collected using a 20x objective with a numerical aperture of 0.75. Analysis of the nuclei in each tissue consisted of five steps 1) focusing the field of view, 2) automatically segmenting the nuclei in the field, 3) interactively correcting segmentation errors, 4) selecting and classifying the cell nuclei into the categories of basal, intermediate or superficial cells depending or their location within the biopsy where possible, and 5) automatically collecting individually focused images of each selected cell. Additionally, approximately 30 leukocytes were collected to normalize the images for sample to sample variations in staining intensity. On the average, greater than 100 cell nuclei were collected in this fashion for each of the biopsies. Using bulk nuclear features such as the total area and the total amount of light absorbed (which corresponds to the amount of DNA), shape features and descriptions of the distribution of stained DNA (texture features) (Doudkine et al., 1995), a scale was defined with normal nuclei defining one end and cancer-like nuclei defining the other. From the proportion of nuclei along this scale, a Morphometry Index (MI) was derived for each biopsy (Lam et al., 1998).
For quantitative nuclear morphometry, the median MI for histologically normal biopsies was 1.25. The inter-observer variation of measuring the MI was such that a change in MI greater than 0.11 (>2SD) was taken to be a significant change. For the lesion specific analysis, CR was defined as regression of a lesion with a MI of >1.36 to ≦1.36. PD was defined as increase in the MI from ≦1.36 to >1.36. On a participant by participant basis, CR was defined as regression of all sites with MI>1.36 to ≦1.36. PD was defined as progression of any site similar to that defined under the site by site analysis or appearance of new lesions with a MI of >1.36.
Descriptive statistics were used to summarize subject characteristics, and pathologic evaluations of the bronchial biopsy examinations. Comparison between treatment arms was done with the Mann-Whitney test for continuous variables such as age, smoking intensity (pack-years) and MI. Pearson's χ^2 test with continuity correction was used to compare categorical variables such as gender, smoking status (current versus former smokers) and response rates (progression and regression) in the two arms. Fisher's exact test was applied to the lower partial response and stable disease rates. All P values are two-sided. A two-sided P value of less than 0.05 was considered statistically significant.

[1] = test system: glutathione-S-transferase (GST); conditions: rat model of hepatoma; p<0.01; cited from earlier work

COc1ccc(-c2cc(=S)ss2)cc1 [ADT, 5-(p-methoxyphenyl)-1,2-dithiole-3-thione]
Protection against oxidative stress-induced cytotoxicity (human Jurkat cells): significantly protects cells | PR rate, subject specific analysis, nuclear morphometry (bronchial dysplasia; 6 months): 3% | Biopsies with MI >1.36 at 6 months (bronchial dysplasia; baseline MI >1.36, of 38): 9 | Biopsies with MI ≦1.36 at 6 months (bronchial dysplasia; baseline MI >1.36, of 38): 29 | CR rate, lesion specific analysis, nuclear morphometry (bronchial dysplasia; baseline MI >1.36 to ≦1.36 at 6 months, placebo 63%, P=0.37): 76% | Biopsies with MI >1.36 at 6 months (bronchial dysplasia; baseline MI ≦1.36, of 112): 27 | Biopsies with MI ≦1.36 at 6 months (bronchial dysplasia; baseline MI ≦1.36, of 112): 85 | PD rate, lesion specific analysis, nuclear morphometry (bronchial dysplasia; baseline MI ≦1.36 to >1.36 at 6 months, placebo 33%, P=0.22): 24% | CR, number of subjects, nuclear morphometry (bronchial dysplasia; of 29): 13 | PD, number of subjects, nuclear morphometry (bronchial dysplasia; of 29): 12 | PR, number of subjects, nuclear morphometry (bronchial dysplasia; of 29): 1 | PD rate, person specific analysis, nuclear morphometry (bronchial dysplasia; participants with MI>1.36 pre-treatment, placebo 60%, P=0.28): 41% | PD rate lower than placebo, nuclear morphometry (bronchial dysplasia; person specific, 41% versus 60%): 19% | CR rate higher than placebo, nuclear morphometry (bronchial dysplasia; person specific, 45% versus 24%): 21% | CR rate, person specific analysis, nuclear morphometry (bronchial dysplasia; placebo 24%, p=0.19): 45% | Biopsies with MI >1.36 at 6 months (bronchial dysplasia; total, of 150): 36 | Biopsies with MI ≦1.36 at 6 months (bronchial dysplasia; total, of 150): 114 | Mean GST levels in the liver [1]: statistically increased
